# From the supplement of paper PMC10307832
# Tests used:
# Assay in all cases: relative viability (nuclei count vs DMSO), 5 days (fraction); higher = more cells survive
# 201T = tested on: 201T
# Outline: (§1)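 The day after seeding in 1536-well plates, lung cancer cell lines were treated by pin tool with a single drug, or with a fixed anchor-drug dose together with five library-drug doses (not always all listed) in √10 steps. After 5 days, a combined fix-and-stain solution (final 0.05% Triton X-100, 1% formaldehyde, 1 ug/ml Hoechst) was added. Nuclei counted on 4× images gave relative viability as treated counts over vehicle counts, reported as the median of duplicate plates.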
# EPLC-272H = tested on: EPLC-272H
# Outline: as §1
# HCC-78 = tested on: HCC-78
# Outline: as §1
# LCLC-97TM1 = tested on: LCLC-97TM1
# Outline: as §1
# LOU-NH91 = tested on: LOU-NH91
# Outline: as §1
# NCI-H1355 = tested on: NCI-H1355
# Outline: as §1
# NCI-H1651 = tested on: NCI-H1651
# Outline: as §1
# NCI-H1734 = tested on: NCI-H1734
# Outline: as §1
# NCI-H1792 = tested on: NCI-H1792
# Outline: as §1
# NCI-H1793 = tested on: NCI-H1793
# Outline: as §1
# NCI-H1915 = tested on: NCI-H1915
# Outline: as §1
# NCI-H1993 = tested on: NCI-H1993
# Outline: as §1
# NCI-H2228 = tested on: NCI-H2228
# Outline: as §1
# NCI-H460 = tested on: NCI-H460
# Outline: as §1
# NCI-H596 = tested on: NCI-H596
# Outline: as §1
# PC-3 [JPC-3] = tested on: PC-3 [JPC-3]
# Outline: as §1
# RERF-LC-KJ = tested on: RERF-LC-KJ
# Outline: as §1
# SK-MES-1 = tested on: SK-MES-1
# Outline: as §1
# SW 1573 = tested on: SW 1573
# Outline: as §1
# ABC-1 = tested on: ABC-1
# Outline: as §1
# LCLC-103H = tested on: LCLC-103H
# Outline: as §1
# NCI-H650 = tested on: NCI-H650
# Outline: as §1
# NCI-H661 = tested on: NCI-H661
# Outline: as §1
smiles,measurement,setting,value
Oc1nc(-c2ccc(C(F)(F)F)cc2)nc2c1CSCC2 [XAV939] + CC1(C)CCC(c2ccc(Cl)cc2)=C(CN2CCN(c3ccc(C(=O)NS(=O)(=O)c4ccc(N[C@H](CCN5CCOCC5)CSc5ccccc5)c(S(=O)(=O)C(F)(F)F)c4)cc3)CC2)C1 [Navitoclax] (partner 0.5 µM),relative viability,201T; first compound 0.08 µM,1.21
same,relative viability,201T; first compound 0.253 µM,1.13
same,relative viability,201T; first compound 0.8 µM,1.09
same,relative viability,201T; first compound 2.53 µM,1.16
same,relative viability,EPLC-272H; first compound 0.08 µM,1.18
same,relative viability,EPLC-272H; first compound 0.253 µM,1.08
same,relative viability,EPLC-272H; first compound 0.8 µM,1.19
same,relative viability,EPLC-272H; first compound 2.53 µM,1.11
same,relative viability,HCC-78; first compound 0.08 µM,0.842
same,relative viability,HCC-78; first compound 0.253 µM,0.736
same,relative viability,HCC-78; first compound 0.8 µM,0.825
same,relative viability,HCC-78; first compound 2.53 µM,0.613
same,relative viability,LCLC-97TM1; first compound 0.08 µM,0.534
same,relative viability,LCLC-97TM1; first compound 0.253 µM,0.399
same,relative viability,LCLC-97TM1; first compound 0.8 µM,0.621
same,relative viability,LCLC-97TM1; first compound 2.53 µM,0.294
same,relative viability,LOU-NH91; first compound 0.08 µM,0.636
same,relative viability,LOU-NH91; first compound 0.253 µM,0.627
same,relative viability,LOU-NH91; first compound 0.8 µM,0.692
same,relative viability,LOU-NH91; first compound 2.53 µM,0.652
same,relative viability,NCI-H1355; first compound 0.08 µM,0.913
same,relative viability,NCI-H1355; first compound 0.253 µM,0.825
same,relative viability,NCI-H1355; first compound 0.8 µM,0.805
same,relative viability,NCI-H1355; first compound 2.53 µM,0.637
same,relative viability,NCI-H1651; first compound 0.08 µM,1.12
same,relative viability,NCI-H1651; first compound 0.253 µM,1.01
same,relative viability,NCI-H1651; first compound 0.8 µM,0.995
same,relative viability,NCI-H1651; first compound 2.53 µM,0.894
same,relative viability,NCI-H1734; first compound 0.08 µM,0.921
same,relative viability,NCI-H1734; first compound 0.253 µM,0.866
same,relative viability,NCI-H1734; first compound 0.8 µM,0.856
same,relative viability,NCI-H1734; first compound 2.53 µM,0.855
same,relative viability,NCI-H1792; first compound 0.08 µM,0.595
same,relative viability,NCI-H1792; first compound 0.253 µM,0.589
same,relative viability,NCI-H1792; first compound 0.8 µM,0.601
same,relative viability,NCI-H1792; first compound 2.53 µM,0.572
same,relative viability,NCI-H1793; first compound 0.08 µM,0.593
same,relative viability,NCI-H1793; first compound 0.253 µM,0.442
same,relative viability,NCI-H1793; first compound 0.8 µM,0.369
same,relative viability,NCI-H1793; first compound 2.53 µM,0.452
same,relative viability,NCI-H1915; first compound 0.08 µM,0.813
same,relative viability,NCI-H1915; first compound 0.253 µM,0.793
same,relative viability,NCI-H1915; first compound 0.8 µM,0.769
same,relative viability,NCI-H1915; first compound 2.53 µM,0.792
same,relative viability,NCI-H1993; first compound 0.8 µM,0.698
same,relative viability,NCI-H1993; first compound 2.53 µM,0.787
same,relative viability,NCI-H2228; first compound 0.08 µM,1.13
same,relative viability,NCI-H2228; first compound 0.253 µM,0.838
same,relative viability,NCI-H2228; first compound 0.8 µM,0.94
same,relative viability,NCI-H2228; first compound 2.53 µM,1.1
same,relative viability,NCI-H460; first compound 0.08 µM,1.38
same,relative viability,NCI-H460; first compound 0.253 µM,1.03
same,relative viability,NCI-H460; first compound 0.8 µM,1.1
same,relative viability,NCI-H460; first compound 2.53 µM,1.16
same,relative viability,NCI-H596; first compound 0.08 µM,0.887
same,relative viability,NCI-H596; first compound 0.253 µM,1.09
same,relative viability,NCI-H596; first compound 0.8 µM,0.901
same,relative viability,NCI-H596; first compound 2.53 µM,0.756
same,relative viability,PC-3 [JPC-3]; first compound 0.08 µM,0.728
same,relative viability,PC-3 [JPC-3]; first compound 0.253 µM,0.737
same,relative viability,PC-3 [JPC-3]; first compound 0.8 µM,0.814
same,relative viability,PC-3 [JPC-3]; first compound 2.53 µM,0.724
same,relative viability,RERF-LC-KJ; first compound 0.08 µM,0.905
same,relative viability,RERF-LC-KJ; first compound 0.253 µM,0.999
same,relative viability,RERF-LC-KJ; first compound 0.8 µM,0.804
same,relative viability,RERF-LC-KJ; first compound 2.53 µM,0.452
same,relative viability,SK-MES-1; first compound 0.08 µM,1.21
same,relative viability,SK-MES-1; first compound 0.253 µM,1.12
same,relative viability,SK-MES-1; first compound 0.8 µM,1.12
same,relative viability,SK-MES-1; first compound 2.53 µM,1.14
same,relative viability,SW 1573; first compound 0.08 µM,1.16
same,relative viability,SW 1573; first compound 0.253 µM,0.957
same,relative viability,SW 1573; first compound 0.8 µM,0.83
same,relative viability,SW 1573; first compound 2.53 µM,0.792
Oc1nc(-c2ccc(C(F)(F)F)cc2)nc2c1CSCC2 [XAV939] + O=C(CCCCCCC(=O)Nc1ccccc1)NO [Vorinostat] (partner 1 µM),relative viability,201T; first compound 0.08 µM,1.07
same,relative viability,201T; first compound 0.253 µM,0.794
same,relative viability,201T; first compound 0.8 µM,0.832
same,relative viability,201T; first compound 2.53 µM,0.779
same,relative viability,ABC-1; first compound 0.253 µM,0.767
same,relative viability,ABC-1; first compound 0.8 µM,1.12
same,relative viability,ABC-1; first compound 2.53 µM,0.568
same,relative viability,EPLC-272H; first compound 0.08 µM,0.369
same,relative viability,EPLC-272H; first compound 0.253 µM,0.339
same,relative viability,EPLC-272H; first compound 0.8 µM,0.746
same,relative viability,EPLC-272H; first compound 2.53 µM,0.324
same,relative viability,HCC-78; first compound 0.08 µM,0.526
same,relative viability,HCC-78; first compound 0.253 µM,0.453
same,relative viability,HCC-78; first compound 0.8 µM,0.443
same,relative viability,HCC-78; first compound 2.53 µM,0.415
same,relative viability,LCLC-103H; first compound 0.08 µM,0.874
same,relative viability,LCLC-103H; first compound 0.253 µM,0.698
same,relative viability,LCLC-103H; first compound 0.8 µM,0.805
same,relative viability,LCLC-103H; first compound 2.53 µM,0.618
same,relative viability,LCLC-97TM1; first compound 0.08 µM,1.05
same,relative viability,LCLC-97TM1; first compound 0.253 µM,0.686
same,relative viability,LCLC-97TM1; first compound 2.53 µM,0.449
same,relative viability,LOU-NH91; first compound 0.08 µM,0.952
same,relative viability,LOU-NH91; first compound 0.253 µM,0.813
same,relative viability,LOU-NH91; first compound 0.8 µM,0.88
same,relative viability,LOU-NH91; first compound 2.53 µM,0.937
same,relative viability,NCI-H1355; first compound 0.08 µM,0.688
same,relative viability,NCI-H1355; first compound 0.253 µM,0.546
same,relative viability,NCI-H1355; first compound 0.8 µM,0.552
same,relative viability,NCI-H1355; first compound 2.53 µM,0.445
same,relative viability,NCI-H1651; first compound 0.08 µM,0.546
same,relative viability,NCI-H1651; first compound 0.253 µM,0.529
same,relative viability,NCI-H1651; first compound 0.8 µM,0.555
same,relative viability,NCI-H1651; first compound 2.53 µM,0.512
same,relative viability,NCI-H1734; first compound 0.08 µM,0.98
same,relative viability,NCI-H1734; first compound 0.253 µM,0.835
same,relative viability,NCI-H1734; first compound 0.8 µM,0.757
same,relative viability,NCI-H1734; first compound 2.53 µM,0.803
same,relative viability,NCI-H1793; first compound 0.08 µM,0.952
same,relative viability,NCI-H1793; first compound 0.253 µM,0.573
same,relative viability,NCI-H1793; first compound 0.8 µM,0.937
same,relative viability,NCI-H1793; first compound 2.53 µM,0.733
same,relative viability,NCI-H1915; first compound 0.08 µM,0.603
same,relative viability,NCI-H1915; first compound 0.253 µM,0.51
same,relative viability,NCI-H1915; first compound 0.8 µM,0.5
same,relative viability,NCI-H1915; first compound 2.53 µM,0.498
same,relative viability,NCI-H1993; first compound 0.08 µM,0.635
same,relative viability,NCI-H1993; first compound 0.253 µM,0.625
same,relative viability,NCI-H1993; first compound 0.8 µM,0.691
same,relative viability,NCI-H1993; first compound 2.53 µM,0.789
same,relative viability,NCI-H2228; first compound 0.08 µM,0.639
same,relative viability,NCI-H2228; first compound 0.253 µM,0.589
same,relative viability,NCI-H2228; first compound 0.8 µM,0.775
same,relative viability,NCI-H2228; first compound 2.53 µM,0.597
same,relative viability,NCI-H460; first compound 0.08 µM,0.943
same,relative viability,NCI-H460; first compound 0.253 µM,0.46
same,relative viability,NCI-H460; first compound 0.8 µM,0.649
same,relative viability,NCI-H460; first compound 2.53 µM,0.433
same,relative viability,NCI-H596; first compound 0.08 µM,0.642
same,relative viability,NCI-H596; first compound 0.253 µM,0.623
same,relative viability,NCI-H596; first compound 0.8 µM,0.587
same,relative viability,NCI-H596; first compound 2.53 µM,0.543
same,relative viability,NCI-H650; first compound 0.08 µM,0.461
same,relative viability,NCI-H650; first compound 0.253 µM,0.345
same,relative viability,NCI-H650; first compound 0.8 µM,0.506
same,relative viability,NCI-H650; first compound 2.53 µM,0.368
same,relative viability,NCI-H661; first compound 0.08 µM,0.807
same,relative viability,NCI-H661; first compound 0.253 µM,0.674
same,relative viability,NCI-H661; first compound 0.8 µM,0.777
same,relative viability,NCI-H661; first compound 2.53 µM,0.777
same,relative viability,PC-3 [JPC-3]; first compound 0.253 µM,0.76
same,relative viability,PC-3 [JPC-3]; first compound 0.8 µM,0.769
same,relative viability,PC-3 [JPC-3]; first compound 2.53 µM,0.816
same,relative viability,RERF-LC-KJ; first compound 0.08 µM,0.707
same,relative viability,RERF-LC-KJ; first compound 0.253 µM,0.609
same,relative viability,RERF-LC-KJ; first compound 0.8 µM,0.643
same,relative viability,RERF-LC-KJ; first compound 2.53 µM,0.368
same,relative viability,SK-MES-1; first compound 0.08 µM,1.1
same,relative viability,SK-MES-1; first compound 0.253 µM,0.954
same,relative viability,SK-MES-1; first compound 0.8 µM,0.92
same,relative viability,SK-MES-1; first compound 2.53 µM,0.831
same,relative viability,SW 1573; first compound 0.08 µM,0.922
same,relative viability,SW 1573; first compound 0.253 µM,0.8
same,relative viability,SW 1573; first compound 0.8 µM,0.542
same,relative viability,SW 1573; first compound 2.53 µM,0.373
